According to patent publication US10040789B2, “1,3,4-thiadiazole compounds and their use in treating cancer” (AstraZeneca AB, priority 2015, dated 2018):
Where two headings read alike, the source gives them in different places.

Tests used:
NCI-H1703 cells = assay: GLS Cell Proliferation Assay (NCI-H1703 cell proliferation); format: cell-based
From the text: (§1) The following assays were used to measure the effects of the compounds described herein: a) GLS Enzyme Potency Assay; b) GLS Cell Potency Assay; c) GLS Cell Proliferation Assay. During the description of the assays, generally: • i. The following abbreviations have been used: CO2=Carbon dioxide; DMEM=Dulbecco's Modified Eagle Medium; DMSO=Dimethyl sulphoxide; EDTA=Ethylenediaminetetraacetic acid; EGTA=Ethylene glycol tetraacetic acid; FCS=Foetal calf serum; h=Hour(s); NBS=Non-binding surface; SDS=Sodium dodecyl sulphate; TRIS=Tris(Hydroxymethyl)aminomethane. • ii. IC50 values were calculated using a smart fitting model in Genedata.
Assay c): GLS Cell Proliferation Assay
The ability of compounds to inhibit cell growth was measured using a 384 well plate NCI-H1703 cell proliferation assay. NCI-H1703 cells were grown in phenol red free RPMI1640, 10% FCS and 2 mM glutamine and seeded at a density of 750 cells per well in 40 μl of growth medium into clear-bottom 384 well assay plates (Corning product code 3712) and incubated for 24 h at 37° C., 5% CO2. Test compounds were prepared by dilution in 100% DMSO to give the correct dose range for 12 point concentration response and an appropriate volume (5-120 nl) dispensed directly into the assay plates containing plated cells. DMSO concentration was maintained at 0.3% by back filling with DMSO solution. Plates were incubated for 5 days at 37° C., 5% CO2, Sytox Green and Saponin added to final concentration of 2 μM and 0.25% respectively and incubated for 6 h prior to analysis. Plates were read on an Acumen eX3 (TTP Labtech) using 488 nm excitation and FITC filter set (500-530 nm) for emission. IC50 values were calculated by curve fitting to max inhibition of day zero growth using GeneData software analysis.

GLS1 = GLS1 (Homo sapiens (Human), UniProt O94925); assay: GLS Enzyme Potency Assay (Glutamate Oxidase/AmplexRed coupled assay); format: biochemical
GLS1, sequence (O94925 63-669): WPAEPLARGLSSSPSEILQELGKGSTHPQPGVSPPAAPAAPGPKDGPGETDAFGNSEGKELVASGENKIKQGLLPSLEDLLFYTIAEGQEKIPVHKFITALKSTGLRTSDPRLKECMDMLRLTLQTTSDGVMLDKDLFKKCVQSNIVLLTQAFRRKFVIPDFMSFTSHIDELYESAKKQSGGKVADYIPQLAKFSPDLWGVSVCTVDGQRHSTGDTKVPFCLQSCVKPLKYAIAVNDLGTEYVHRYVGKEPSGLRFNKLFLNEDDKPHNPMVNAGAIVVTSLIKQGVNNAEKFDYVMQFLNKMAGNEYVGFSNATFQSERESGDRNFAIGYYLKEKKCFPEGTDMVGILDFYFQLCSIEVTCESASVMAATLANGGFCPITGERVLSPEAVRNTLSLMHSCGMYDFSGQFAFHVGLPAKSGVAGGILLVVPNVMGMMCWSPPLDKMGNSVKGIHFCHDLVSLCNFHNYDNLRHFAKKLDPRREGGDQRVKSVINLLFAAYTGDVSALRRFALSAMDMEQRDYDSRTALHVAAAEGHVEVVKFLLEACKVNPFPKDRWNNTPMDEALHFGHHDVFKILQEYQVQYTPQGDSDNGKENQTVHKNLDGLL
From the text: as §1
Assay a): GLS Enzyme Potency Assay
A Glutamate Oxidase/AmplexRed coupled assay was used to measure the ability of compounds to bind to and inhibit the activity of GLS1 in vitro. […] GLS1 was diluted to 2×working concentration and incubated at room temperature to allow the tetrameric/dimeric forms to reach steady state. Assay measurements were performed in buffer comprising 50 mM TRIS pH 7.8, 100 mM NaPO4, pH 7.8, 0.001% v/v Tween20. […] DMSO concentration was maintained at 2% by back filling with DMSO solution. […] 3 μL of 100 mM glutamine diluted in assay buffer was then added and the reaction incubated at room temperature for 60 minutes. […] An artefact version of the assay where the 6His tagged GLS protein and glutamine were replaced with assay buffer was also used to rule out non specific effects on the assay components.

[1] = molecular target: cellular GLS activity in PC3 cells (Homo sapiens (Human), UniProt O94925); assay: GLS Cell Potency Assay (PC3 coupled assay measuring cellular glutamate depletion); format: cell-based; details: PC3 cells, 6 h incubation, cellular glutamate depletion; read-out: Assay b) GLS cell MOA Mean IC50
cellular GLS activity in PC3 cells, sequence (O94925 55-669): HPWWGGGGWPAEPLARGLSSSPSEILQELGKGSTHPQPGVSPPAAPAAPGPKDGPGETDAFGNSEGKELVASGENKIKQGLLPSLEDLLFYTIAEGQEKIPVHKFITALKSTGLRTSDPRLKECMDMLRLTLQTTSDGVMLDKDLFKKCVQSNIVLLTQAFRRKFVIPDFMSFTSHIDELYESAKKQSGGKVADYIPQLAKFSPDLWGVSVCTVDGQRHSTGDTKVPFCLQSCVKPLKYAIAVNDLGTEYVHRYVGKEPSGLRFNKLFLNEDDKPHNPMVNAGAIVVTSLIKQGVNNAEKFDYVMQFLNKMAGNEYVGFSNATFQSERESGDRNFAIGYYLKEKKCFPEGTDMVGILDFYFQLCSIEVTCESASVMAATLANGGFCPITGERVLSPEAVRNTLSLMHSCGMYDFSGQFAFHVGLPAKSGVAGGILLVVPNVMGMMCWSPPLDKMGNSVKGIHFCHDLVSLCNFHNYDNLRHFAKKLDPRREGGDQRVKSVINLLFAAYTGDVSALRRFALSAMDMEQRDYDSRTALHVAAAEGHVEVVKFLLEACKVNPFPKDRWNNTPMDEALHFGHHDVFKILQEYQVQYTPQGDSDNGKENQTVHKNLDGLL
From the text: as §1
Assay b): GLS Cell Potency Assay
Compounds were assessed for their potential to inhibit cellular GLS activity by use of a PC3 coupled assay measuring cellular glutamate depletion. […] DMSO concentration was maintained at 0.3% by back filling with DMSO solution. PC3 cells were grown in phenol free DMEM, 10% dialyzed FCS, 2 mM glutamine and following dispersal by trypsinisation were plated at 5.6×10^3 cells per well in 40 μl of growth medium directly into the 384 well assay plates containing dispensed compound. After incubation for 6 h at 37° C., 5% CO2 growth media was aspirated and cells lysed in 15 μl of buffer containing 10 mM TRIS pH7.4, 100 mM NaCl, 1 mM EDTA, 1 mM EGTA, 1 mM NaF, 20 mM Na4P2O7, 2 mM Na3VO4, 1% Triton X-100, 10% glycerol, 0.1% SDS and 0.5% deoxycholate. 4 μl Of cell lysate was then transferred to a 384 well NBS plate (Corning product code 3575) and 35 μl of […] Amplex Red, 0.1375 U/mL Horseradish Peroxidase, 0.044 U/mL glutamate oxidase, 100 mM TRIS pH7.5 was added.

[2] = Homo sapiens, 120 h; NCI-H1703 cells, 5 days incubation, Sytox Green; read-out: Assay c) Prolif Mean IC50
[3] = recombinant 6His tagged GLS protein (amino acids 63-669), 60 minutes reaction with glutamine
[4] = Homo sapiens, NCI-H1703, 120 h, NCI-H1703 cells, 5 days incubation, Sytox Green; read-out: Assay c) Prolif Mean IC50

Row | SMILES | IC50 (NCI-H1703 cells; [2]) [nM] | IC50 (GLS1; [3]) [nM] | IC50 [1] [nM] | IC50 (NCI-H1703 cells; [4]) [nM] | IC50 (GLS1) [nM] | IC50 (NCI-H1703 cells; NCI-H1703 cells, 5 days incubation, Sytox Green; read-out: Assay c) Prolif Mean IC50) [nM]
1 | Cc1cccc([C@@H](C(=O)Nc2nnc(N[C@@H]3CCN(c4cccnn4)C3)s2)N(C)C)c1 [Example 10, (2S)-2-(dimethylamino)-2-(3-methylphenyl)-N-[5-[[(3R)-1-pyridazin-3-ylpyrrolidin-3-yl]amino]-1,3,4-thiadiazol-2-yl]acetamide] | 21.2 | 59.2 | 2.12 | – | – | –
2 | CN(C)[C@@H](C(=O)Nc1nnc(N[C@@H]2CCN(c3cccnn3)C2)s1)c1cccc(OC(F)(F)F)c1 [Example 14, (2R)-2-(dimethylamino)-N-[5-[[(3R)-1-pyridazin-3-ylpyrrolidin-3-yl]amino]-1,3,4-thiadiazol-2-yl]-2-[3-(trifluoromethoxy)phenyl]acetamide] | – | 2260 | 10.2 | 5.23 | – | –
3 | Cc1ccc([C@@H](C(=O)Nc2nnc(N[C@@H]3CCN(c4cccnn4)C3)s2)N(C)C)cc1 [Example 9, (2S)-2-(dimethylamino)-2-(4-methylphenyl)-N-[5-[[(3R)-1-pyridazin-3-ylpyrrolidin-3-yl]amino]-1,3,4-thiadiazol-2-yl]acetamide] | 44.8 | 132 | 2.81 | – | – | –
4 | COc1cccc([C@@H](C(=O)Nc2nnc(N[C@@H]3CCN(c4cccnn4)C3)s2)N2CCC2)c1 [Example 6(a), (2S)-2-(azetidin-1-yl)-2-(3-methoxyphenyl)-N-[5-[[(3R)-1-pyridazin-3-ylpyrrolidin-3-yl]amino]-1,3,4-thiadiazol-2-yl]acetamide] | – | 981 | 22 | 29.3 | – | –
5 | CN(C)[C@H](C(=O)Nc1nnc(N[C@@H]2CCN(c3cccnn3)C2)s1)c1cccc(C#N)c1 [Example 13, (2S)-2-(3-cyanophenyl)-2-(dimethylamino)-N-[5-[[(3R)-1-pyridazin-3-ylpyrrolidin-3-yl]amino]-1,3,4-thiadiazol-2-yl]acetamide] | 76.8 | – | 11.3 | – | 226 | –
6 | CN(C)[C@H](C(=O)Nc1nnc(N[C@@H]2CCN(c3cccnn3)C2)s1)c1cccc(OC(F)(F)F)c1 [Example 4(a), (2S)-2-(dimethylamino)-N-[5-[[(3R)-1-pyridazin-3-ylpyrrolidin-3-yl]amino]-1,3,4-thiadiazol-2-yl]-2-[3-(trifluoromethoxy)phenyl]acetamide] | – | 56.4 | 0.405 | – | – | 8.41
7 | O=C(Nc1nnc(N[C@@H]2CCN(c3ccc(F)nn3)C2)s1)[C@H](c1cccc(OC(F)(F)F)c1)N1CCC1 [Example 12(a), (2S)-2-(azetidin-1-yl)-N-[5-[[(3R)-1-(6-fluoropyridazin-3-yl)pyrrolidin-3-yl]amino]-1,3,4-thiadiazol-2-yl]-2-[3-(trifluoromethoxy)phenyl]acetamide] | 11.6 | 2510 | 15.3 | – | – | –
